Assay results as given in ChEMBL document CHEMBL1201862, “PubChem BioAssay data set” (2004).
Activity calls are given as the source filed them.

What was measured:
[1] = target: T1, V-type proton ATPase subunit c' (Saccharomyces cerevisiae S288c, UniProt P32842); test: Dose Response of Small Molecules that Regulate V-ATPase Proton Transport in Yeast using pHLuorin, Cherry Pick 1. [Related pubchem assays (depositor defined):AID504622]; type: functional
[2] = reduction of Shn3 3'UTR-driven luciferase in osteoblasts – cell-based, Clone20 osteoblasts, firefly luciferase, cherry-picked, dose response (AID 624132); type: functional;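 also: firefly luciferase luminescence from reporter carrying the Shn3 3'UTR in osteoblasts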
[3] = loss of viability in HepG2 cells – cell-based, CellTiter-Glo, cherry-picked, cytotoxicity control for Shn3 inhibitor project, dose response (AID 624134); type: functional
[4] = system: Escherichia coli; test: microbe, parasite or virus in culture
[5] = target: T2, Kappa-type opioid receptor (Homo sapiens, UniProt P41145); type: functional
T2 sequence (P41145 whole entry): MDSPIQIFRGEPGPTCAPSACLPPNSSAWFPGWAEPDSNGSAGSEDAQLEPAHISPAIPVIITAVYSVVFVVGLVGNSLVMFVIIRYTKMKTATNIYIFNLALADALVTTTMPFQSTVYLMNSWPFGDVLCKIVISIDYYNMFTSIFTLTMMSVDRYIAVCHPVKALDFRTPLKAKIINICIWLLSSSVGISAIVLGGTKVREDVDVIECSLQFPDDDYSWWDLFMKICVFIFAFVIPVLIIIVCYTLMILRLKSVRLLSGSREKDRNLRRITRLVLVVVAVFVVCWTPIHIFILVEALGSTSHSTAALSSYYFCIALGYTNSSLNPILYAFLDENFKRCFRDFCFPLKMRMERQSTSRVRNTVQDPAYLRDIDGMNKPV

[6] = system: Escherichia coli; test: microbe, parasite or virus in culture; remark: listed apart in the source
[7] = target: G-protein coupled receptor 35 (Homo sapiens, UniProt Q9HC97); test: inhibition of zaprinast-stimulated GPR35 beta-arrestin translocation – imaging, U2OS, beta-arrestin-GFP, zaprinast agonist, primary screen (AID 2058); type: functional;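 also: antagonist potency meaning inhibition of agonist-induced arrestin redistribution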
[8] = target: T3, Delta-type opioid receptor (Homo sapiens, UniProt P41143); test: HTS Image-Based Screen for Agonists of the DOR Receptor. [Related pubchem assays (depositor defined):AID1777, AID1786, AID2133]; type: functional
T3 sequence (P41143 whole entry): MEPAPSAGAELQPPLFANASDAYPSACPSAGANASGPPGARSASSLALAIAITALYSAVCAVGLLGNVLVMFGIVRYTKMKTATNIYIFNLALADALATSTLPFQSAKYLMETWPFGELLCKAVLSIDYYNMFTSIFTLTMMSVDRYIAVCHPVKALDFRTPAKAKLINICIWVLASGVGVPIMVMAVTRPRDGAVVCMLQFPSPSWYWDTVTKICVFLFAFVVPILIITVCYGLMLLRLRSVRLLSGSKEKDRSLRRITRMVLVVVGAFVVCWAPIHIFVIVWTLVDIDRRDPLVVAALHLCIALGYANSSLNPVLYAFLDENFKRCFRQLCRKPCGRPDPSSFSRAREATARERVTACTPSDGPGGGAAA

[9] = target: Melanocortin receptor 4 (Homo sapiens, UniProt P32245); test: inhibitors of MC4R cAMP signaling – cell-based, TR-FRET, biased antagonists, dose response (AID 602298); type: functional;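 also: antagonist potency against agonist-stimulated cAMP production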
[10] = target: Mu-type opioid receptor (Homo sapiens, UniProt P35372); test: HTS Image-Based Screen for Agonists of the MOR Receptor. [Related pubchem assays (depositor defined):AID1777, AID1785, AID1786, AID2133]; type: functional;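 also: imaging of beta-arrestin GFP recruitment into spots after receptor activation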
[11] = cAMP pathway inhibition in counterscreen cell line – TR-FRET cAMP detection, counter-screen for MC4R biased antagonist project, dose response (AID 602305); type: functional, cell-based;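 also: U2OS cells stimulated with forskolin near its EC80 as the cAMP inducer; potency is for inhibition of forskolin-stimulated cAMP signaling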
[12] = target: T2, Kappa-type opioid receptor; type: functional; remark: listed apart in the source
[13] = target: T4, Mannose-6-phosphate isomerase (Homo sapiens, UniProt P34949); test: MPI enzyme activity inhibition – biochemical, fluorescence intensity, coupled assay, primary screen (AID 1209)
T4 sequence (P34949 whole entry): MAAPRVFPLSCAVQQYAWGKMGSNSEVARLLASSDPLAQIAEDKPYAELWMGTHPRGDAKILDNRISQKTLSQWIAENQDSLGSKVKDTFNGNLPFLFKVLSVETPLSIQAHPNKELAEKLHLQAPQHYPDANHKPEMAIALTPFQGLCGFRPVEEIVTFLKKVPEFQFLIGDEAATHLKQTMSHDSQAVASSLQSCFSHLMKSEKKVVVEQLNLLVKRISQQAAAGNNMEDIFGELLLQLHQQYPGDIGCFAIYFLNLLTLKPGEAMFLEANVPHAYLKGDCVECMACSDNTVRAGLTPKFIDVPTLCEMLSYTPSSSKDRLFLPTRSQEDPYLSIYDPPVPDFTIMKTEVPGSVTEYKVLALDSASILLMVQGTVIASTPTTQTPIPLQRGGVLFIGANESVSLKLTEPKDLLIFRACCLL

[14] = non-specific 3'UTR reporter inhibition in Clone20-Shn3RL – cell-based, Renilla luciferase, cherry-picked, counter-screen for Shn3 inhibitor project, dose response (AID 624133); type: functional
[15] = target: T5, Rac GTPase-activating protein 1 (Homo sapiens, UniProt Q9H0H5); test: blockers of MgcRacGAP-driven Rac1 GTP hydrolysis – biochemical, ADP Hunter fluorescence, primary and confirmatory, confirmation (AID 624330); type: functional
T5 sequence (Q9H0H5 whole entry): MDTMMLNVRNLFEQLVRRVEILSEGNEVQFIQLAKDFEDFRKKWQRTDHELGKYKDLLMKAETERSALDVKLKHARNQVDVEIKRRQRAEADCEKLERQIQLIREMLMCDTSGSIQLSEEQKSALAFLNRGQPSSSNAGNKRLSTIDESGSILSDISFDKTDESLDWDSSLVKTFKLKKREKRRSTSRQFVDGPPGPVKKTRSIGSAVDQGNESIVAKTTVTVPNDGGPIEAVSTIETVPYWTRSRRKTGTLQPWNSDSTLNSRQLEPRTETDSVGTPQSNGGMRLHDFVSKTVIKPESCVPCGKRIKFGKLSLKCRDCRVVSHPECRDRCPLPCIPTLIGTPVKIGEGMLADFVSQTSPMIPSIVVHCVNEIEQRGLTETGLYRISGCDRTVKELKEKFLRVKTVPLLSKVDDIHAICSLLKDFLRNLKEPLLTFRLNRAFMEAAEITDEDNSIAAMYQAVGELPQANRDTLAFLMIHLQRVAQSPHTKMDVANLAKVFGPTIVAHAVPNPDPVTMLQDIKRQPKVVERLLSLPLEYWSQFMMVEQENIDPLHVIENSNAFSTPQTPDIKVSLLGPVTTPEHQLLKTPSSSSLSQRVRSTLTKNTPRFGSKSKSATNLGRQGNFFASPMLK

[16] = target: T1, V-type proton ATPase subunit c'; test: Dose Response of Small Molecules that Regulate V-ATPase Proton Transport in Yeast using pHLuorin, Cherry Pick 2.; type: functional; settings: read-out: EC50_MICROM
[17] = target: T3, Delta-type opioid receptor; test: HTS Image-Based Screen for Antagonists of the DOR Receptor. [Related pubchem assays (depositor defined):AID1777, AID1785, AID1786, AID2133]; type: functional
[18] = target: T6, Bifunctional protein GlmU (Mycobacterium tuberculosis, UniProt P9WMN3); test: Inhibitors of Mycobacterial Glucosamine-1-phosphate acetyl transferase (GlmU). Secondary screen.; design: species or system Mycobacterium tuberculosis H37Rv
T6 sequence (P9WMN3 whole entry): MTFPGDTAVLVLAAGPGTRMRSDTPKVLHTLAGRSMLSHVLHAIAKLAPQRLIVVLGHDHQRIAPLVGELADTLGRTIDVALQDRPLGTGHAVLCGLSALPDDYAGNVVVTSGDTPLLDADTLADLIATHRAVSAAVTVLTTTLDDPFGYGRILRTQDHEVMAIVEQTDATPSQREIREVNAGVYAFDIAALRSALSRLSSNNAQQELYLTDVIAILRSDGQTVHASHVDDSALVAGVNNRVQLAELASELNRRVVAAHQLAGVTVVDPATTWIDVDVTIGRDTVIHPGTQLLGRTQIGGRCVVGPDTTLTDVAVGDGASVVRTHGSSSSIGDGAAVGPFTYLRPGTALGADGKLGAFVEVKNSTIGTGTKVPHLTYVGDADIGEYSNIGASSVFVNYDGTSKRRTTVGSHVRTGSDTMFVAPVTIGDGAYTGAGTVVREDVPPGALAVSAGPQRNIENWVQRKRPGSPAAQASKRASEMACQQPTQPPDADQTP

[19] = target: Heat shock protein HSP 90-alpha (Homo sapiens, UniProt P07900); type: functional, organism-based
[20] = viability loss in HeLa cells – cytotoxicity control for MgcRacGAP inhibitor project, dose response (AID 624300); type: functional
[21] = target: Proto-oncogene tyrosine-protein kinase Src (Homo sapiens, UniProt P12931); type: functional;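 also: SRC entry within a kinome-wide kinase profiling panel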
[22] = target: Mast/stem cell growth factor receptor Kit (Homo sapiens, UniProt P10721); type: functional;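 also: KIT entry within a kinase panel assay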
Chain of Mast/stem cell growth factor receptor Kit (P10721 whole entry): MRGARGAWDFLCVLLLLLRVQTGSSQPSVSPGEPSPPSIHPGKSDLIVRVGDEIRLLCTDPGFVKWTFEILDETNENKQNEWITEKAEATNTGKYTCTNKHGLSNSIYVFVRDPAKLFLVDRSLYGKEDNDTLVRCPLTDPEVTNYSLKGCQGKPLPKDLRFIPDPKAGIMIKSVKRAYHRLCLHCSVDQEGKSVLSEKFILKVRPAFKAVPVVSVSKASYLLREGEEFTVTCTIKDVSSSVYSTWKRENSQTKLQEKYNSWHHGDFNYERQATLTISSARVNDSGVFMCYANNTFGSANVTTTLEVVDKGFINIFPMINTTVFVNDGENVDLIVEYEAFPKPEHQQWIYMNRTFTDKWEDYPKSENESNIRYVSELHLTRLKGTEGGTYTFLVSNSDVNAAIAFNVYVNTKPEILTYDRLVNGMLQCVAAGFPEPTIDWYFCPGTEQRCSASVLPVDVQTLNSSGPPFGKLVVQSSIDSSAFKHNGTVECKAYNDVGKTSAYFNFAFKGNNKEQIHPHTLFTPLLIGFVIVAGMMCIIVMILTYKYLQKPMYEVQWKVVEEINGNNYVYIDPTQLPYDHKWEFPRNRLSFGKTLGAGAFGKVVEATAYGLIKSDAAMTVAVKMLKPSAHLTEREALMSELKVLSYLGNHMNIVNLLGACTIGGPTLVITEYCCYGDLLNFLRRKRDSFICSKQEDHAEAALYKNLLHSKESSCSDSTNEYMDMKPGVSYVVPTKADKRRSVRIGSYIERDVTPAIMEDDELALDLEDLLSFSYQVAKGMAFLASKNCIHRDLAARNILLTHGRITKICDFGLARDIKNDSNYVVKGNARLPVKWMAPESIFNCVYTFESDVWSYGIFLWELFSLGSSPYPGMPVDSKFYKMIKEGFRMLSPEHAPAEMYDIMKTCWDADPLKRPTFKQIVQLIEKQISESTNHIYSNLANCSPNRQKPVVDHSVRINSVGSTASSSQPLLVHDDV

[23] = target: Tyrosine-protein kinase Lyn (Homo sapiens, UniProt P07948); type: functional;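 also: lyn as one member of a kinase panel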
[24] = target: Tyrosine-protein kinase Blk (Homo sapiens, UniProt P51451); type: functional;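 also: obtained as one member of a kinome-wide kinase assay panel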
Chain of Tyrosine-protein kinase Blk (P51451 whole entry): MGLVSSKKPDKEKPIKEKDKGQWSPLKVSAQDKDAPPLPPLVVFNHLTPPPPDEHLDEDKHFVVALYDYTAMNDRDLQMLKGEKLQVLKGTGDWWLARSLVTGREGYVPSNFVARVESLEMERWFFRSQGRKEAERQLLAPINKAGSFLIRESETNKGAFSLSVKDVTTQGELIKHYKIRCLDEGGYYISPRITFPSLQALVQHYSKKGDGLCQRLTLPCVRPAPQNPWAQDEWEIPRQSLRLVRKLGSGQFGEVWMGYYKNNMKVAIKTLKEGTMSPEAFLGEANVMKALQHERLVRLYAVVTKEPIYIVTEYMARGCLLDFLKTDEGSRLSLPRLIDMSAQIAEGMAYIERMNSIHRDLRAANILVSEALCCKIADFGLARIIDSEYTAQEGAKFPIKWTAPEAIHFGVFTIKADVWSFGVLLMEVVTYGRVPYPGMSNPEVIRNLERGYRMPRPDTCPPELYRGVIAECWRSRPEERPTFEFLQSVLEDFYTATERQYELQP

[25] = target: Receptor-type tyrosine-protein kinase FLT3 (Homo sapiens, UniProt P36888); type: functional;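 also: FLT3 was tested as one member of a kinome-wide kinase panel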
[26] = target: Vascular endothelial growth factor receptor 3 (Homo sapiens, UniProt P35916); type: functional;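 also: value from a kinome-wide profiling panel, with FLT4 as the panel member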
[27] = target: Macrophage colony-stimulating factor 1 receptor (Homo sapiens, UniProt P07333); type: functional;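 also: value comes from the Navigating the Kinome screening panel, CSF1R member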
Chain of Macrophage colony-stimulating factor 1 receptor (P07333 whole entry): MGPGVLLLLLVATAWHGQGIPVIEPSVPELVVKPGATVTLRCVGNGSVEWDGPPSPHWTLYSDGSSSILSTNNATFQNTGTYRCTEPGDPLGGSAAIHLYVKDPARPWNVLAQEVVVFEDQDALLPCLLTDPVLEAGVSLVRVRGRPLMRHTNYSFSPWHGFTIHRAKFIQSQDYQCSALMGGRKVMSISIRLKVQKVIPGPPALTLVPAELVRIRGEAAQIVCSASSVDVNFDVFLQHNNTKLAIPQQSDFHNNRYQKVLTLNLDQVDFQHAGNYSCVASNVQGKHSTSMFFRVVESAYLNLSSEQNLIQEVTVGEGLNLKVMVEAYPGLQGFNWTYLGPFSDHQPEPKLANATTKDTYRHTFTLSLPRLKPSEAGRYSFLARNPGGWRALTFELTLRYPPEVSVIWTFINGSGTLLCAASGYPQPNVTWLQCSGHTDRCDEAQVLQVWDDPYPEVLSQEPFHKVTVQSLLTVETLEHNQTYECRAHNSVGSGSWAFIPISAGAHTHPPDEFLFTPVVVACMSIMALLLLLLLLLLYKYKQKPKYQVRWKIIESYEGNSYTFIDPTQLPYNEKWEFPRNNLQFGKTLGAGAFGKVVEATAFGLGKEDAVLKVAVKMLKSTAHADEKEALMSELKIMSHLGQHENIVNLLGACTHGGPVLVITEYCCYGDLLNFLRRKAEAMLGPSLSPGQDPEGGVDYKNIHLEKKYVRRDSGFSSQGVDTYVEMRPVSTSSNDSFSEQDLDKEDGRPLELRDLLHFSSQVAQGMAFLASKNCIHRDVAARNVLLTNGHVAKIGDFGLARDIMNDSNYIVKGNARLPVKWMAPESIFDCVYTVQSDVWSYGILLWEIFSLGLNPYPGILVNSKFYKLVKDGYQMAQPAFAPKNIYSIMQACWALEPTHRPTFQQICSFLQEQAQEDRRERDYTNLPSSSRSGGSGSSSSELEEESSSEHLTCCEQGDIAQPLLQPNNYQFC

[28] = target: Tyrosine-protein kinase Lck (Homo sapiens, UniProt P06239); type: functional;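 also: lck was assayed as one member of a kinase panel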
[29] = target: Vascular endothelial growth factor receptor 2 (Homo sapiens, UniProt P35968); type: functional
[30] = target: Vascular endothelial growth factor receptor 1 (Homo sapiens, UniProt P17948); type: functional;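 also: measured within a kinome-wide profiling panel, FLT1 as the panel member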
[31] = target: Tyrosine-protein kinase Fyn (Homo sapiens, UniProt P06241); type: functional
Chain of Tyrosine-protein kinase Fyn (P06241 whole entry): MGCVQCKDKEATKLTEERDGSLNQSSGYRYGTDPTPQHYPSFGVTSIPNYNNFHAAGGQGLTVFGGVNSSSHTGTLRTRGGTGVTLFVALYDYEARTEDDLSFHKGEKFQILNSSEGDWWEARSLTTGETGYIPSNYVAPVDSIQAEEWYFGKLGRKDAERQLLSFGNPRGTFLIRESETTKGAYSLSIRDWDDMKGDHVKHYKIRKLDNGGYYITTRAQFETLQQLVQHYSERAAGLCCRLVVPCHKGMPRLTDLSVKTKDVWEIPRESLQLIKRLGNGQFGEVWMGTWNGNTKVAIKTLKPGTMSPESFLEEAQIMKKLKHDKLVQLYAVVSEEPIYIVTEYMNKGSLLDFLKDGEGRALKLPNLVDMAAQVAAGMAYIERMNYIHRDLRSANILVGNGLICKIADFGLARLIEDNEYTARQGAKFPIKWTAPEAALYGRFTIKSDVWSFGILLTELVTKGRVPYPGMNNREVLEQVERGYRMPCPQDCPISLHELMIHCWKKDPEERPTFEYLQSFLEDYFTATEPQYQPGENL

[32] = target: Tyrosine-protein kinase ABL1 (Homo sapiens, UniProt P00519); type: functional
Chain of Tyrosine-protein kinase ABL1 (P00519 whole entry): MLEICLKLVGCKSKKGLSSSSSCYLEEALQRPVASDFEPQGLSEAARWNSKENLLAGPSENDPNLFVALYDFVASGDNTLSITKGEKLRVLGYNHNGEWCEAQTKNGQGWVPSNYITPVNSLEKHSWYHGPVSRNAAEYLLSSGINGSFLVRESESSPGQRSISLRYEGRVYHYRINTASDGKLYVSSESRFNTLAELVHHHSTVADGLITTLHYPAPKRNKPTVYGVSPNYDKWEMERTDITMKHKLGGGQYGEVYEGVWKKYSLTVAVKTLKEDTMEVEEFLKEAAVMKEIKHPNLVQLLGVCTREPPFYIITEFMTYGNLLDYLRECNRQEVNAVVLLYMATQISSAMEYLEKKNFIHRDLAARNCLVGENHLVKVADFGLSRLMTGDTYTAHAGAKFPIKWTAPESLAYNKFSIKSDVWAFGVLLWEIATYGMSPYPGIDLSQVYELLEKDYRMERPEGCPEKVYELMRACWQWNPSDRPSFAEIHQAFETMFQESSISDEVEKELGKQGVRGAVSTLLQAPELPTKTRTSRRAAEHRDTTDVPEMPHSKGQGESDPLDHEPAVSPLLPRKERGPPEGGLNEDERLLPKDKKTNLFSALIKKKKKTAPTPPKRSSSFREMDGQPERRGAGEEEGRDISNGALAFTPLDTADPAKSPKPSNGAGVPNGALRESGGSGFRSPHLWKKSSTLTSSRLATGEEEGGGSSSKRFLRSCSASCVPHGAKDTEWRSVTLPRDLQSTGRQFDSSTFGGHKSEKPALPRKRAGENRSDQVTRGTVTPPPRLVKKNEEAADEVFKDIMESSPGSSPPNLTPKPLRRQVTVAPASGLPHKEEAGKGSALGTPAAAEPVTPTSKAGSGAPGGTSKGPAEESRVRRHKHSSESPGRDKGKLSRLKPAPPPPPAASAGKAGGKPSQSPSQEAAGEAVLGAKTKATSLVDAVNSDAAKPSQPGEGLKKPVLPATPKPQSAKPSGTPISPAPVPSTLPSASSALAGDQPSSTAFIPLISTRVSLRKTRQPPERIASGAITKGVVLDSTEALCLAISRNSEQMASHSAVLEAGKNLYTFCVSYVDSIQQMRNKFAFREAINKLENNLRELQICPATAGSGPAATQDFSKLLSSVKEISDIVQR

[33] = target: Melanin-concentrating hormone receptor 1 (Homo sapiens, UniProt Q99705); test: Late-stage fluorescence-based counterscreen for antagonists of the G-protein coupled receptor 7 (GPR7): cell-based dose response assay to identify antagonists of the melanin-concentrating hormone receptor 1 (MCHR1) Set 5.; type: functional
[34] = target: T7, Neuropeptides B/W receptor type 1 (Homo sapiens, UniProt P48145); test: human NPBW1 receptor blockade, IC50 – cell-based, fluorescence, dose response, set 5, late-stage follow-up (AID 588566); type: functional
T7 sequence (P48145 whole entry): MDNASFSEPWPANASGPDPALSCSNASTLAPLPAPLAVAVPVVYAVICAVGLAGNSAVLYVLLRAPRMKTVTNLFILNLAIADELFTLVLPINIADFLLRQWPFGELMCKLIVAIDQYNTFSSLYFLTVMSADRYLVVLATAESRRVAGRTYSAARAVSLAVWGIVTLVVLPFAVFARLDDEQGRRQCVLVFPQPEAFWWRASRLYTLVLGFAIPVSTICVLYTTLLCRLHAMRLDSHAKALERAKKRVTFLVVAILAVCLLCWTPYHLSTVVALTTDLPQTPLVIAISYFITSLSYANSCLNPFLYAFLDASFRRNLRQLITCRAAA

T1 sequence (P32842 whole entry): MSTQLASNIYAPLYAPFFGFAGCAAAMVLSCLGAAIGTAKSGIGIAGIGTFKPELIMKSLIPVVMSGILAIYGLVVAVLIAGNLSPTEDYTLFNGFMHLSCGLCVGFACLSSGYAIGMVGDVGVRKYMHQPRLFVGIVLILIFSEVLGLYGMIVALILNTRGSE

Cc1c(Cl)sn(-c2ccc(Cl)cc2)c1=O
active: EC50 [1] 5.19 µM | AC50 [2] 0.728 µM | AC50 [3] 19.8 µM | AC50 [4] 6.51 µM | AC50 [6] 2.64 µM | IC50 [7] 2.72 µM | IC50 [9] 3.75 µM | AC50 [14] 3.85 µM | IC50 [15] 49.6 µM | EC50 [16] 1.4 µM | IC50 [18] 118 µM | AC50 [19] < 0.195 µM | CC50 [20] 9.78 µM
> 35 µM: EC50 [12]
6.37 µM: EC50 [5]
> 50 µM (not active): IC50 [13]
inactive: EC50 [8] > 32 µM | EC50 [10] > 32 µM | IC50 [11] 19.6 µM | IC50 [17] > 32 µM

Cc1ccc(F)c(NC(=O)Nc2ccc(-c3c(F)ccc4[nH]nc(N)c34)cc2)c1
active: Ki [21] 0.501 µM | Ki [22] 0.001 µM | Ki [23] 0.398 µM | Ki [24] 1.58 µM | Ki [25] 0.000794 µM | Ki [26] 0.001 µM | Ki [27] 0.00126 µM | Ki [28] 0.631 µM | Ki [29] 0.00794 µM | Ki [30] 0.000251 µM | Ki [31] 0.501 µM | Ki [32] 0.501 µM

N#CC(c1ccccc1)c1c(Br)cnn(Cc2cccc3ccccc23)c1=O (centres undefined)
active: IC50 [34] 0.116 µM
inactive: IC50 [33] 16.4 µM
